What follows are compounds tested against T1, GSK-3β (AA 1-420) (Homo sapiens, UniProt P49841) (assay: Ki determination for the inhibition of GSK-3 (coupled enzyme system)). Settings: 20 μM ATP, 300 μM peptide, 20 nM GSK-3β, 30° C.
T1 construct: GSK-3β (AA 1-420)
Type: biochemical
Experimental: Compounds were screened for their ability to inhibit GSK-3β (AA 1-420) activity using a standard coupled enzyme system (Fox et al. (1998) Protein Sci. 7, 2249). Reactions were carried out in a solution containing 100 mM HEPES (pH 7.5), 10 mM MgCl2, 25 mM NaCl, 300 μM NADH, 1 mM DTT and 1.5% DMSO. Final substrate concentrations in the assay were 20 μM ATP (Sigma Chemicals, St Louis, Mo.) and 300 μM peptide (HSSPHQS(PO3H2)EDEEE, American Peptide, Sunnyvale, Calif.). Reactions were carried out at 30° C. and 20 nM GSK-3β. Final concentrations of the components of the coupled enzyme system were 2.5 mM phosphoenolpyruvate, 300 μM NADH, 30 μg/ml pyruvate kinase and 10 μg/ml lactate dehydrogenase.
An assay stock buffer solution was prepared containing all of the reagents listed above with the exception of ATP and the test compound of interest. The assay stock buffer solution (175 μl) was incubated in a 96 well plate with 5 μl of the test compound of interest at final concentrations spanning 0.002 μM to 30 μM at 30° C. for 10 min. Typically, a 12 point titration was conducted by preparing serial dilutions (from 10 mM compound stocks) with DMSO of the test compounds in daughter plates. The reaction was initiated by the addition of 20 μl of ATP (final concentration 20 μM). Rates of reaction were obtained using a Molecular Devices Spectramax plate reader (Sunnyvale, Calif.) over 10 min at 30° C. The Ki values were determined from the rate data as a function of inhibitor concentration.

T1 sequence (P49841 whole entry, the tested form may be a part): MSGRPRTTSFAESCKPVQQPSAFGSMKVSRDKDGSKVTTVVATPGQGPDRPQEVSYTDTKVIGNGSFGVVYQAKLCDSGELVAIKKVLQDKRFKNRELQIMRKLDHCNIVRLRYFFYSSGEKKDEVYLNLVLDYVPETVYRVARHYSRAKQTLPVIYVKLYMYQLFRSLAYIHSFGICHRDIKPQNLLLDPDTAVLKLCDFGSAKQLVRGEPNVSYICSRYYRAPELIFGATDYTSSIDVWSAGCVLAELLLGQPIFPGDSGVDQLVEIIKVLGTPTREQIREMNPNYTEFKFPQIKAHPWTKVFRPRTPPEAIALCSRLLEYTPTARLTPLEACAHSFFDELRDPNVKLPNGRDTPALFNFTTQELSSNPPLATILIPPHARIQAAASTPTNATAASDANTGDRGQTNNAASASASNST

Row | Ki [µM] | Compound
1 | 0.1 to 1 | CCOc1ccccc1-c1nc(Nc2cc(C)[nH]n2)c2ccccc2n1 [II-45, [2-(2-Ethoxyphenyl)-quinazolin-4-yl]-(5-Methyl-2H-pyrazol-3-yl)-amine]
2 | < 0.1 | COc1cccc2c(Nc3n[nH]c4c(F)cccc34)nc(-c3ccccc3C(F)(F)F)nc12 [II-92, (7-Fluoro-1H-indazol-3-yl)-[8-methoxy-2-(2-trifluoromethyl-phenyl)-quinazolin-4-yl]-amine]
3 | < 0.1 | Fc1cc(F)c2[nH]nc(Nc3nc(-c4ccc(Cl)cc4Cl)nc4ccccc34)c2c1 [II-87, [2-(2,4-Dichloro-phenyl)-quinazolin-4-yl]-(5,7-Difluoro-1H-indazol-3-yl)-amine]
4 | 0.1 to 1 | FC(F)(F)c1ccccc1-c1nc(Nc2cc(-c3ccccc3)[nH]n2)c2ccccc2n1 [II-50, (5-Phenyl-2H-pyrazol-3-yl)-[2-(2-trifluoromethylphenyl)-quinazolin-4-yl]-amine]
5 | < 0.1 | Fc1ccc2[nH]nc(Nc3nc(-c4c(Cl)cccc4Cl)nc4ccccc34)c2c1 [II-62, [2-(2,6-Dichloro-phenyl)-quinazolin-4-yl]-(5-fluoro-1H-indazol-3-yl)-amine]
6 | 1 to 20 | Cc1cc(Nc2nc(-c3ccccc3-c3ccccc3)nc3ccccc23)n[nH]1 [II-43, (2-Biphenyl-2-yl-quinazolin-4-yl)-(5-methyl-2H-pyrazol-3-yl)-amine]
7 | < 0.1 | Clc1ccccc1-c1nc2c(c(Nc3n[nH]c4ccccc34)n1)CCC2 [II-116, [2-(2-Chloro-phenyl)-6,7-dihydro-5H-cyclopentapyrimidin-4-yl]-(1H-indazol-3-yl)-amine]
8 | 0.1 to 1 | Cc1cc(Nc2nc(-c3ccc4c(c3)OCO4)nc3ccccc23)[nH]n1 [III-43, (2-Benzo[1,3]dioxol-5-yl-quinazolin-4-yl)-(5-methyl-2H-pyrazol-3-yl)-amine]
9 | < 0.1 | Fc1cccc2c(Nc3nc(-c4ccccc4C(F)(F)F)nc4c3CCCCCC4)n[nH]c12 [II-120, (7-Fluoro-1H-indazol-3-yl)-[2-(2-trifluoromethyl-phenyl)-5,6,7,8,9,10-hexahydro-cyclooctapyrimidin-4-yl]-amine]
10 | < 0.1 | Cc1nc(-c2ccccc2Cl)nc(Nc2n[nH]c3ccc(F)cc23)c1C [II-31, [2-(2-Chlorophenyl)-5,6-dimethyl-pyrimidin-4-yl]-(5-fluoro-1H-indazol-3-yl)-amine]
11 | 0.1 to 1 | COC(=O)c1cc(Nc2nc(N3CCCCC3)nc3ccccc23)[nH]n1 [III-122, (5-Methoxycarbonyl-2H-pyrazol-3-yl)-[2-(piperidine-1-yl)-quinazolin-4-yl]-amine]
12 | 1 to 20 | CNC(=O)c1cc(Nc2nc(-c3ccccc3)nc3ccccc23)[nH]n1 [III-96, (5-Methylcarbamoyl-2H-pyrazol-3-yl)-(2-phenyl-quinazolin-4-yl)-amine]
13 | < 0.1 | Fc1cc(F)c2n[nH]c(Nc3nc(-c4ccccc4)nc4ccccc34)c2c1 [III-131, (5,7-Difluoro-1H-indazol-3-yl)-(2-phenyl-quinazolin-4-yl)-amine]
14 | 1 to 20 | c1ccc(-c2cc(Nc3nc[nH]n3)c3ccccc3n2)cc1 [IX-176, (2-Phenyl-quinolin-4-yl)-(1H-[1,2,4]triazol-3-yl)-amine]
15 | 1 to 20 | Fc1cc(F)c2[nH]nc(Nc3cc(-c4ccccc4C(F)(F)F)nc4ccccc34)c2c1 [Compound V-8, (5,7-Difluoro-1H-indazol-3-yl)-[2-(2-trifluoromethyl-phenyl)-quinolin-4-yl]-amine]
16 | < 0.1 | Fc1cc(F)c2[nH]nc(Nc3nc(-c4ccccc4C(F)(F)F)cc4ccccc34)c2c1 [Compound V-3, (5,7-Difluoro-1H-indazol-3-yl)-[3-(2-trifluoromethyl-phenyl)-isoquinolin-1-yl]-amine]
17 | 1 to 20 | Cc1cccc(NC(=O)c2cc(Nc3nc(-c4ccccc4)nc4ccccc34)[nH]n2)c1 [III-94, (2-Phenyl-quinazolin-4-yl)-(5-m-tolylcarbamoyl-2H-pyrazol-3-yl)-amine]
18 | 1 to 20 | CC(C)CNC(=O)c1cc(Nc2nc(-c3ccccc3)nc3ccccc23)[nH]n1 [III-91, (5-Isobutylcarbamoyl-2H-pyrazol-3-yl)-(2-phenyl-quinazolin-4-yl)-amine]
19 | < 0.1 | Cc1nc(-c2ccccc2C(F)(F)F)nc(Nc2n[nH]c3c(F)cccc23)c1C [II-27, [5,6-Dimethyl-2-(2-trifluoromethyl-phenyl)-pyrimidin-4-yl]-(7-fluoro-1H-indazol-3-yl)-amine]

Row | Ki [µM] | Compound
20 | < 0.1 | COCc1cc(Nc2nc(-c3ccccc3C(F)(F)F)nc3ccccc23)n[nH]1 [II-56, (5-Methoxymethyl-2H-pyrazol-3-yl)-[2-(2-trifluoromethyl-phenyl)-quinazolin-4-yl]-amine]
21 | 0.1 to 1 | FC(F)(F)c1ccccc1-c1cc(Nc2n[nH]c3ccccc23)c2ccccc2n1 [Compound V-7, (1H-Indazol-3-yl)-[2-(2-trifluoromethyl-phenyl)-quinolin-4-yl]-amine]
22 | < 0.1 | Fc1cccc2c(Nc3nc(-c4ccccc4C(F)(F)F)nc4ccccc34)n[nH]c12 [II-60, (7-Fluoro-1H-indazol-3-yl)-[2-(2-trifluoromethyl-phenyl)-quinazolin-4-yl]-amine]
23 | < 0.1 | Fc1cc(F)c2[nH]nc(Nc3nc(-c4ccccc4C(F)(F)F)nc4ccccc34)c2c1 [II-71, (5,7-Difluoro-1H-indazol-3-yl)-[2-(2-trifluoromethyl-phenyl)-quinazolin-4-yl]-amine]
24 | < 0.1 | FC(F)(F)c1ccccc1-c1nc2c(c(Nc3n[nH]c4ccccc34)n1)CCCCCC2 [II-119, (1H-Indazol-3-yl)-[2-(2-trifluoromethyl-phenyl)-5,6,7,8,9,10-hexahydro-cyclooctapyrimidin-4-yl]-amine]
25 | < 0.1 | Cc1cc(Nc2nc(-c3ccccc3)nc3c2CCCCC3)n[nH]1 [III-8, (5-Methyl-2H-pyrazol-3-yl)-(2-phenyl-6,7,8,9-tetrahydro-5H-cycloheptapyrimidin-4-yl)-amine]
26 | < 0.1 | Fc1ccc2[nH]nc(Nc3nc(-c4ccccc4Cl)nc4c3CCC4)c2c1 [II-112, [2-(2-Chloro-phenyl)-6,7-dihydro-5H-cyclopentapyrimidin-4-yl]-(5-fluoro-1H-indazol-3-yl)-amine]
27 | < 0.1 | Fc1ccc2[nH]nc(Nc3nc(-c4ccccc4Cl)nc4c3CCCCC4)c2c1 [II-5, [2-(2-Chloro-phenyl)-6,7,8,9-tetrahydro-5H-cycloheptapyrimidin-4-yl]-(5-fluoro-1H-indazol-3-yl)-amine]
28 | < 0.1 | Fc1cc(F)c2[nH]nc(Nc3nc(-c4ccccc4Cl)nc4c3CCC4)c2c1 [II-118, [2-(2-Chloro-phenyl)-6,7-dihydro-5H-cyclopentapyrimidin-4-yl]-(5,7-difluoro-1R-indazol-3-yl)-amine]
29 | < 0.1 | Cc1nc(-c2ccccc2Cl)nc(Nc2n[nH]c3c(F)cccc23)c1C [II-30, [2-(2-Chlorophenyl)-5,6-dimethyl-pyrimidin-4-yl]-(7-fluoro-1H-indazol-3-yl)-amine]
30 | < 0.1 | Fc1ccc2[nH]nc(Nc3nc(-c4ccccc4C(F)(F)F)nc4c3CCN(Cc3ccccc3)C4)c2c1 [II-18]
31 | < 0.1 | Fc1ccc2[nH]nc(Nc3nc(-c4ccccc4C(F)(F)F)nc4c3CCCCC4)c2c1 [II-15, (5-Fluoro-1H-indazol-3-yl)-[2-(2-trifluoromethyl-phenyl)-6,7,8,9-tetrahydro-5H-cycloheptapyrimidin-4-yl]-amine]
32 | 0.1 to 1 | O=c1cc2[nH]nc(Nc3nc(-c4ccccc4C(F)(F)F)nc4ccccc34)c2nn1-c1ccccc1 [II-101, (6-Oxo-5-phenyl-5,6-dihydro-1H-pyrazolo[4,3-c]pyridazin-3-yl)-[2-(2-trifluoromethyl-phenyl)-quinazolin-4-yl]-amine]
33 | 0.1 to 1 | FC(F)(F)c1ccccc1-c1nc(Nc2n[nH]c3ccccc23)cc(-c2ccccn2)n1 [II-22, (1H-Indazol-3-yl)-[6-(pyridin-2-yl)-2-(2-trifluoromethyl-phenyl)-pyrimidin-4-yl]-amine]
34 | < 0.1 | FC(F)(F)c1ccccc1-c1nc2c(c(Nc3n[nH]c4ccccc34)n1)CCCCC2 [II-13, (1H-Indazol-3-yl)-[2-(2-trifluoromethyl-phenyl)-6,7,8,9-tetrahydro-5H-cycloheptapyrimidin-4-yl]-amine]
35 | 0.1 to 1 | O=c1cc2[nH]nc(Nc3nc(-c4ccccc4)nc4ccccc34)c2nn1-c1cccc(C(F)(F)F)c1 [III-138, [6-Oxo-5-(3-trifluoromethyl-phenyl)-5,6-dihydro-1H-pyrazolo[4,3-c]pyridazin-3-yl]-(2-phenyl-quinazolin-4-yl)-amine]
36 | < 0.1 | FC(F)(F)c1ccccc1-c1nc(Nc2n[nH]c3ccccc23)cc(-c2ccccc2Cl)n1 [II-23, [6-(2-Chlorophenyl)-2-(2-trifluoromethyl-phenyl)-pyrimidin-4-yl]-(1H-indazol-3-yl)-amine]
37 | < 0.1 | FC(F)(F)c1ccc2[nH]nc(Nc3nc(-c4ccccc4)nc4c3CCCC4)c2c1 [III-128, (2-Phenyl-5,6,7,8-tetrahydroquinazolin-4-yl)-(5-trifluoromethyl-1H-indazol-3-yl)-amine]

From US6610677B2, “Pyrazole compounds useful as protein kinase inhibitors” (Vertex Pharmaceuticals Incorporated, priority 2000, dated 2003)
